Consider four molecules from publication PMC4204886 (Biochemistry, 2014).

The target of series [1] is E. coli PBP4 (Escherichia coli, UniProt P24228). Put plainly: Membrane-bound PBP inhibition, Bocillin Fl competition gel. The class given is binding. As to conditions: gel experiments, E. coli membranes, 1 h preincubation, Bocillin Fl 20 μM.
For series [2], the target named is E. coli PBP2 (Escherichia coli, UniProt P0AD65). The description is as above. In kind it is binding. The note with it: gel experiments, E. coli membranes, 1 h preincubation, Bocillin Fl 20 μM.
For series [3], the target named is T1, class C P99 β-lactamase (Enterobacter cloacae, UniProt P05364). The experiment in a line: P99 β-lactamase inhibition, steady-state competition with cephalothin. The class given is biochemical.
Series [4] addresses AmpC β-lactamase (Escherichia coli, UniProt P00811). Put plainly: AmpC β-lactamase inhibition, steady-state competition with cephalothin. The class given is biochemical.
The test system of series [5] is E. coli PBP1a/1b. Put plainly: Membrane-bound PBP inhibition, Bocillin Fl competition gel. As to conditions: gel experiments, E. coli membranes, 1 h preincubation, Bocillin Fl 20 μM. The class given is binding.
The target in series [6] is class A TEM-2 β-lactamase (Escherichia coli, UniProt P62593, Q37K). In kind it is biochemical, E. coli W3310.
Series [7] concerns the target E. coli PBP3 (Escherichia coli, UniProt P0AD68). The experiment in a line: Membrane-bound PBP inhibition, Bocillin Fl competition gel. In kind it is binding. The note with it: gel experiments, E. coli membranes, 1 h preincubation, Bocillin Fl 20 μM.
Series [8] deals with Actinomadura R39 DD-peptidase (Actinomadura sp., UniProt P39045). The experiment in a line: R39 DD-peptidase inhibition in solution. The class given is biochemical.
Series [9] concerns the target TEM-1 β-lactamase (Escherichia coli, UniProt P62593, Q37K). Put plainly: TEM-1 β-lactamase inhibition. The class given is biochemical. The note with it: even at 1 mM concentrations.
In series [10] the target is class A SHV-1 β-lactamase (Klebsiella pneumoniae, UniProt P0AD64). The experiment in a line: SHV-1 β-lactamase inhibition. In kind it is biochemical. The note with it: even at 1 mM concentrations.
Series [11] concerns the target B. subtilis PBP4a (Bacillus subtilis, UniProt P39844). The experiment in a line: PBP4a inhibition in solution. The class given is biochemical.
The target in series [12] is Streptomyces R61 DD-peptidase (Streptomyces sp., UniProt P15555). The experiment in a line: R61 DD-peptidase inhibition in solution. The class given is biochemical.
Series [13] deals with class A Staphylococcus aureus PC1 β-lactamase (Staphylococcus aureus, UniProt P00807). The experiment in a line: PC1 β-lactamase inhibition. The class given is biochemical.
For series [14], the target named is E. coli PBP5 (Escherichia coli, UniProt P0AEB2). The experiment in a line: Membrane-bound PBP inhibition, Bocillin Fl competition gel. The note with it: gel experiments, E. coli membranes, 1 h preincubation, Bocillin Fl 20 μM. The class given is binding.
In series [15] the target is T1, class C P99 β-lactamase. The note with it: read-out: Km of the substrate; P99 enzyme; 20 mM MOPS pH 7.50, 25 °C; cited from earlier work.
Series [16] deals with CC(=O)OCC1=C(C(=O)O)N2C(=O)[C@@H](NC(=O)Cc3cccs3)[C@H]2SC1. Put plainly: AmpC β-lactamase inhibition, steady-state competition with cephalothin. In kind it is biochemical. The note with it: pH 7.5; 25.0 °C.
Series [17] relates to class A BCI β-lactamase. The note with it: cited from earlier work.
The test system of series [18] is Pseudomonas class C β-lactamase. As to conditions: cited from earlier work.

One may read the Ki as a dissociation constant, usually derived from enzyme kinetics or from competition with a known ligand. Low readings indicate a stronger hold on the target, high ones a looser hold on the target. As for `CC1(C)SC(C(NC(=O)Cc2ccccc2)B(O)O)NC1C(=O)O` (centres unmarked) [compound 12, 2-[1-(dihydroxyboranyl)(2-phenylacetamido)methyl]-5,5-dimethyl-1,3-thiazolidine-4-carboxylic acid], in series [1], the “inhibition of E. coli PBP4” value is listed as “did not inhibit”. For the same molecule, in series [2], the “inhibition of E. coli PBP2” value is reported as “did not inhibit”. In addition, the inhibition constant Ki in [3] is 0.95 ± 0.11 µM; in series [4] it was 1.3 ± 0.4 µM; in [6] (TEM-2 β-lactamase, NI = no inhibition at 1.0 mM), “NI ^b”; in series [8] (R39 DD-peptidase, NI = no inhibition at 0.10 mM) it was “NI ^c”; in series [13] (PCI β-lactamase, NI = no inhibition at 1.0 mM) it was “NI ^b”. Moreover, the “inhibition of E. coli PBP1a/1b” value in series [5] is recorded as “did not inhibit”. Moreover, in series [6] (in 24 h), the “inhibition of TEM-2 enzyme over time” value is given as “no inhibition”. Besides, the “inhibition of E. coli PBP3” value in series [7] is “did not inhibit”. For the same molecule, in series [8] (in solution), the “inhibition of Actinomadura R39 DD-peptidase” value was “no inhibition”. Moreover, the “inhibition of TEM-1 β-lactamase” value in series [9] is on record as “Neither the TEM-1, SHV-1, nor PCI β-lactamases were inhibited”. Besides, in series [10], the “inhibition of SHV-1 β-lactamase” value was “Neither the TEM-1, SHV-1, nor PCI β-lactamases were inhibited”. For the same molecule, the “inhibition of B. subtilis PBP4a” value in series [11] is “no inhibition”. The “inhibition of Streptomyces R61 DD-peptidase” value in series [12] is “no inhibition”. In [13] (even at 1 mM concentrations), the “inhibition of PCI β-lactamase” value is “Neither the TEM-1, SHV-1, nor PCI β-lactamases were inhibited”. Further, the “inhibition of E. coli PBP5” value in series [14] is given as “did not inhibit”.

For orientation: Km means the substrate concentration at which the rate is half of its maximum. Consider `CC(=O)OCC1=C(C(=O)O)N2C(=O)[C@@H](NC(=O)Cc3cccs3)[C@H]2SC1` [cephalothin], for which, in series [15], the Km was 9 µM.

For “AmpC β-lactamase (Escherichia coli K-12)”, the Km in series [16] is 13.8 µM.

Take “Methyl penicilloate [compound 28, reference compound]”: the substrate activity result in series [3] (P99 β-lactamase, see Supporting Information) is on record as “substrate”; in [18] it was “substrate”. For the same molecule, the “substrate / covalent inhibitor activity” value in series [6] and in series [17] was “neither a substrate nor a covalent inhibitor” in each case.
